Columns and labels:
Details in all cases: 48 h
SEM cells [1] = experiment: AUC of viability dose-response curve (% viability x log10 dose units); higher = less sensitive
Method in brief: (§1)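 Seeding of medium-adapted leukemia cells was at 500 or 1000 cells/well in 1536-well plates, followed by 48 h at 37°C with library compounds in DMSO at 11 threefold doses from 47 μM to 0.79 nM. CellTiter-Glo One luminescence was normalised per plate to DMSO and cell-free wells and fitted as a four-parameter log-logistic function of log10 dose. Area under the curve was integrated by trapezoidal rule, with curves exceeding full viability scaled and curves failing quality control removed.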

NOMO1 [2] = experiment: as above
Method in brief: as §1

P12-Ichikawa = experiment: as above
Method in brief: as §1

SEM cells [3] = experiment: cell viability relative to DMSO control; higher = less cytotoxic
Method in brief: (§2)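 Viability values are per-plate percentages of DMSO wells, with background from cell-free wells. Library compounds in DMSO were pin-dosed, in an 11-point threefold series from 47 μM to 0.79 nM, onto NOMO1 or SEM (500 cells/well) or P12-Ichikawa (1000 cells/well) leukemia cells in 1536-well plates (5 μl). Those cells had been adapted for at least four passages in each medium, and CellTiter-Glo One luminescence was read after 48 h at 37°C.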

NOMO1 [4] = experiment: as above
Method in brief: as §2

CNC(=O)C1=CC=C(C)C(=C1)N2C(=C/C(=C(/Br)C2=O)OCC3=C(F)C=C(F)C=C3)\C
AUC of viability dose-response curve
Details	NOMO1 [2]	P12-Ichikawa	SEM cells [1]
HPLM + 10% dialyzed FBS	465	474	461
RPMI 5 mM glucose + 10% FBS	456	466	465
RPMI 5 mM glucose + 10% dialyzed FBS	466	464	455

cell viability [%]
Details	HPLM + 10% dialyzed FBS	RPMI 5 mM glucose + 10% FBS	RPMI 5 mM glucose + 10% dialyzed FBS
NOMO1 [4], 0.000781 µM	–	114	–
NOMO1 [4], 0.00234 µM	–	128	–
NOMO1 [4], 0.00702 µM	–	122	–
NOMO1 [4], 0.0211 µM	–	127	–
NOMO1 [4], 0.0632 µM	–	127	–
NOMO1 [4], 0.19 µM	–	151	–
NOMO1 [4], 0.569 µM	–	139	–
NOMO1 [4], 1.71 µM	–	137	–
NOMO1 [4], 5.12 µM	–	136	–
NOMO1 [4], 15.4 µM	–	145	–
NOMO1 [4], 46.1 µM	–	130	–
SEM cells [3], 0.000781 µM	109	110	115
SEM cells [3], 0.00234 µM	116	127	118
SEM cells [3], 0.00702 µM	123	124	136
SEM cells [3], 0.0211 µM	106	122	136
SEM cells [3], 0.0632 µM	126	124	134
SEM cells [3], 0.19 µM	123	116	155
SEM cells [3], 0.569 µM	131	131	148
SEM cells [3], 1.71 µM	130	139	131
SEM cells [3], 5.12 µM	125	116	109
SEM cells [3], 15.4 µM	124	113	120
SEM cells [3], 46.1 µM	120	101	103

O=[S+]([O-])(c1cccc2cnccc12)N1CCCNCC1
AUC of viability dose-response curve
Details	NOMO1 [2]	P12-Ichikawa	SEM cells [1]
HPLM + 10% dialyzed FBS	457	456	452
RPMI 5 mM glucose + 10% FBS	471	476	463
RPMI 5 mM glucose + 10% dialyzed FBS	465	467	447

cell viability [%]
Details	HPLM + 10% dialyzed FBS	RPMI 5 mM glucose + 10% FBS	RPMI 5 mM glucose + 10% dialyzed FBS
NOMO1 [4], 0.000781 µM	98.7	–	–
NOMO1 [4], 0.00234 µM	124	–	–
NOMO1 [4], 0.00702 µM	136	–	–
NOMO1 [4], 0.0211 µM	136	–	–
NOMO1 [4], 0.0632 µM	132	–	–
NOMO1 [4], 0.19 µM	147	–	–
NOMO1 [4], 0.569 µM	139	–	–
NOMO1 [4], 1.71 µM	136	–	–
NOMO1 [4], 5.12 µM	130	–	–
NOMO1 [4], 15.4 µM	116	–	–
NOMO1 [4], 46.1 µM	51	–	–
SEM cells [3], 0.000781 µM	103	123	110
SEM cells [3], 0.00234 µM	104	115	108
SEM cells [3], 0.00702 µM	121	130	123
SEM cells [3], 0.0211 µM	120	121	135
SEM cells [3], 0.0632 µM	121	151	145
SEM cells [3], 0.19 µM	127	146	136
SEM cells [3], 0.569 µM	138	133	138
SEM cells [3], 1.71 µM	113	143	172
SEM cells [3], 5.12 µM	117	139	145
SEM cells [3], 15.4 µM	127	148	146
SEM cells [3], 46.1 µM	115	54.9	93.3

C[C@]12CCC\3=C\4CCC(=O)\C=C4CC[C@H]3[C@@H]1CC[C@@]2(O)CC#N
AUC of viability dose-response curve
Details	NOMO1 [2]	P12-Ichikawa	SEM cells [1]
HPLM + 10% dialyzed FBS	436	473	437
RPMI 5 mM glucose + 10% FBS	468	466	445
RPMI 5 mM glucose + 10% dialyzed FBS	454	468	451

cell viability [%]
Details	NOMO1 [4]	SEM cells [3]
HPLM + 10% dialyzed FBS, 0.000781 µM	123	97.2
HPLM + 10% dialyzed FBS, 0.00234 µM	123	103
HPLM + 10% dialyzed FBS, 0.00702 µM	138	123
HPLM + 10% dialyzed FBS, 0.0211 µM	144	97
HPLM + 10% dialyzed FBS, 0.0632 µM	143	124
HPLM + 10% dialyzed FBS, 0.19 µM	139	118
HPLM + 10% dialyzed FBS, 0.569 µM	138	121
HPLM + 10% dialyzed FBS, 1.71 µM	125	144
HPLM + 10% dialyzed FBS, 5.12 µM	158	137
HPLM + 10% dialyzed FBS, 15.4 µM	137	132
HPLM + 10% dialyzed FBS, 46.1 µM	168	115
RPMI 5 mM glucose + 10% FBS, 0.000781 µM	–	117
RPMI 5 mM glucose + 10% FBS, 0.00234 µM	–	124
RPMI 5 mM glucose + 10% FBS, 0.00702 µM	–	116
RPMI 5 mM glucose + 10% FBS, 0.0211 µM	–	88.3
RPMI 5 mM glucose + 10% FBS, 0.0632 µM	–	143
RPMI 5 mM glucose + 10% FBS, 0.19 µM	–	116
RPMI 5 mM glucose + 10% FBS, 0.569 µM	–	138
RPMI 5 mM glucose + 10% FBS, 1.71 µM	–	130
RPMI 5 mM glucose + 10% FBS, 5.12 µM	–	146
RPMI 5 mM glucose + 10% FBS, 15.4 µM	–	139
RPMI 5 mM glucose + 10% FBS, 46.1 µM	–	128

CNC(=O)N1\N=C(\C2=CC=C(N)C=C2)C3=CC4=C(OCO4)C=C3CC1C (centres undefined)
AUC of viability dose-response curve
Details	NOMO1 [2]	P12-Ichikawa	SEM cells [1]
HPLM + 10% dialyzed FBS	440	449	413
RPMI 5 mM glucose + 10% FBS	451	447	400
RPMI 5 mM glucose + 10% dialyzed FBS	449	449	392

cell viability [%], SEM cells [3]
Details	HPLM + 10% dialyzed FBS	RPMI 5 mM glucose + 10% FBS
0.000781 µM	111	120
0.00234 µM	113	134
0.00702 µM	130	124
0.0211 µM	121	145
0.0632 µM	142	138
0.19 µM	133	134
0.569 µM	122	132
1.71 µM	129	129
5.12 µM	98.3	79.9
15.4 µM	43.8	47.1
46.1 µM	8.25	8.13

— the supplement of paper PMC11451515
